# Source: ChEMBL document CHEMBL1201862, “PubChem BioAssay data set” (2004)
# Activity calls are given as the source filed them.
# What was measured:
# [1] = M. tuberculosis H37Rv growth inhibitors, H37Rv strain (AID 1626); type: functional
# [2] = viability of uninfected HEp-2 cells – cell-based, HTS, cytotoxicity control for RSV inhibitor project, dose response (AID 2410); type: functional; conditions: human respiratory syncytial virus
# [3] = biological target: Bifunctional protein GlmU (Mycobacterium tuberculosis, UniProt P9WMN3); experiment: Inhibitors of Mycobacterial Glucosamine-1-phosphate acetyl transferase (GlmU). Secondary screen.; design: species or system Mycobacterium tuberculosis H37Rv
# [4] = HPDE-C7 pancreatic duct cell viability loss – fluorescence, HTS (AID 430); type: functional, cell-based; conditions: Homo sapiens
# [5] = microbe, parasite or virus in culture; type: functional; conditions: Mycobacterium tuberculosis
# [6] = viability loss of HPDE-C7K cells – cell-based, fluorescence, HTS, primary screen (AID 431); type: functional; conditions: Homo sapiens
# [7] = Trypanosoma cruzi growth suppression in host cells – NIH3T3 host cells, beta-gal luminescence, confirmation (AID 2044); type: functional, cell-based;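 further: intracellular parasites grown in NIH/3T3 mouse fibroblasts as host cells; luminescent beta-galactosidase reporter signal from transgenic T. cruzi replicating inside host cells; inhibitors lower the luminescence signal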
# [8] = NIH3T3 cell viability loss – ATP luminescence, mouse fibroblasts, counter-screen, dose response (AID 2010); type: functional, cell-based;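 further: cells exposed to compound for about 90 hours before reading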
# [9] = cells
# [10] = antiviral protection against BTV-induced cell death – arbovirus, BSR cells, confirmation (AID 1250); type: functional;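 further: protection from viral cytopathic effect measured as cell viability by ATP luminescence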
# [11] = cells; type: functional, cell-based
# [12] = biological target: T1, Nuclear receptor subfamily 0 group B member 1 (Homo sapiens, UniProt P51843); type: functional, cell-based;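 further: HEK293T cells transfected with SF-1 and DAX-1 plus StAR promoter luciferase reporter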
# T1 sequence (P51843 whole entry): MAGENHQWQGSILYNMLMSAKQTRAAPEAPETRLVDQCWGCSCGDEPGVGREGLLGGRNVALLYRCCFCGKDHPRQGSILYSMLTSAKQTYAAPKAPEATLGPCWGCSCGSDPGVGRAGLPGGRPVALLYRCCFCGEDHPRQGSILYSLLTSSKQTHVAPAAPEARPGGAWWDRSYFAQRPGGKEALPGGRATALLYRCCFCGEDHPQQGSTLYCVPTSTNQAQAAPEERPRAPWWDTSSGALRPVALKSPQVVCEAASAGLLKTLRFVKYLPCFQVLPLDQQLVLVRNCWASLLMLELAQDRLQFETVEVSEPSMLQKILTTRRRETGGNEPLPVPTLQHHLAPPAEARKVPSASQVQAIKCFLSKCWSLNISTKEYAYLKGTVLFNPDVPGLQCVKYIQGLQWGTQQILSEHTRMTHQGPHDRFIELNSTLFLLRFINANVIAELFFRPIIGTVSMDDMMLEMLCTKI
# [13] = biological target: E3 ubiquitin-protein ligase Mdm2 (Homo sapiens, UniProt Q00987); experiment: MDM2-luc reporter signal enhancers, multi-concentration potency testing, MDM2 ubiquitin-protein ligase inhibitor program, whole-cell format, luminescence detection, 384-well microplate (AID 1394); type: functional;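 further: MDM2 E3 inhibitors raise luminescence so EC50 is for signal enhancement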
# [14] = biological target: T2, Microphthalmia-associated transcription factor (Homo sapiens, UniProt O75030); experiment: reducers of TRPM1 reporter luminescence, concentration series – cell-based, SK-MEL-5, cherry-picked, set 3, MITF inhibitor project, dose response (AID 493073); type: functional;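 further: SK-MEL-5 melanoma cells with luciferase driven by the MITF target TRPM1 promoter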
# T2 sequence (O75030 whole entry): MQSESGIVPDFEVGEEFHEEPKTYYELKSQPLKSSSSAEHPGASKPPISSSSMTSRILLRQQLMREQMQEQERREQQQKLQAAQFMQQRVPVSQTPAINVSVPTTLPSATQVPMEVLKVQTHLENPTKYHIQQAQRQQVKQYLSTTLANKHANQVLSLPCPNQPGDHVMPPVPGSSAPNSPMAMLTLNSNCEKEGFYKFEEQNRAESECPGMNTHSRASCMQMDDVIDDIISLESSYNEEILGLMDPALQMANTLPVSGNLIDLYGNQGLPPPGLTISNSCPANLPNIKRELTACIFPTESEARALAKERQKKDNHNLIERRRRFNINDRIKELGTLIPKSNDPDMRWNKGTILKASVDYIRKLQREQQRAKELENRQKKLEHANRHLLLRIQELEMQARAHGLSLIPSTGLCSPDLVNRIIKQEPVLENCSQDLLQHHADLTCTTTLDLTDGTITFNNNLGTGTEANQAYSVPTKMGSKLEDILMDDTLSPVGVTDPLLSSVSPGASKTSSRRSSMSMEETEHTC
# [15] = biological target: T3, Polyadenylate-binding protein 1 (Homo sapiens, UniProt P11940); experiment: MLLE binding blockers, Cy5 peptide tracer – biochemical, fluorescence polarization, Cy5-PAM2 peptide, secondary, miRNA deadenylation inhibitor project, dose response (AID 602260); type: functional; conditions: read-out: IC50_Mean
# [16] = biological target: T3, Polyadenylate-binding protein 1; experiment: MLLE domain peptide-binding blockers, IC50 – biochemical, fluorescence polarization, FITC-PAM2 peptide, dose response (AID 602259); type: functional; conditions: read-out: IC50_Mean
# T3 sequence (P11940 whole entry, the tested form may be a part): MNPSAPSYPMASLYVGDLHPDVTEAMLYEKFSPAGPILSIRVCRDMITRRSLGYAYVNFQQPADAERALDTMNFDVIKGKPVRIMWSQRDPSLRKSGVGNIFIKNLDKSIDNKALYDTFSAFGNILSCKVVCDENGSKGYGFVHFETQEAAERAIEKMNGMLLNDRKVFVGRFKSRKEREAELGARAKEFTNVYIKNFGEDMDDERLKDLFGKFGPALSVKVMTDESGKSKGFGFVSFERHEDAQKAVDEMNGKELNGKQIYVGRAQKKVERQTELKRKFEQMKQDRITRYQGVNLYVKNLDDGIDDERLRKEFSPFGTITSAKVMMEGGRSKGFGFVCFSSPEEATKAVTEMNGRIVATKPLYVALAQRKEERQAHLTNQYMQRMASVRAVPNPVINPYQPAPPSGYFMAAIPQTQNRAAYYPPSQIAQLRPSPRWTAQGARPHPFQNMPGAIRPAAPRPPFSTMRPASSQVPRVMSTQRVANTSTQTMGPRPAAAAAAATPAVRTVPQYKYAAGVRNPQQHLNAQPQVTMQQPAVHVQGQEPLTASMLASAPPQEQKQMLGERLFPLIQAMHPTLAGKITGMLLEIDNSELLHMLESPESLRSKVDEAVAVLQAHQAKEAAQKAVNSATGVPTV
# Sequence of Bifunctional protein GlmU (P9WMN3 whole entry): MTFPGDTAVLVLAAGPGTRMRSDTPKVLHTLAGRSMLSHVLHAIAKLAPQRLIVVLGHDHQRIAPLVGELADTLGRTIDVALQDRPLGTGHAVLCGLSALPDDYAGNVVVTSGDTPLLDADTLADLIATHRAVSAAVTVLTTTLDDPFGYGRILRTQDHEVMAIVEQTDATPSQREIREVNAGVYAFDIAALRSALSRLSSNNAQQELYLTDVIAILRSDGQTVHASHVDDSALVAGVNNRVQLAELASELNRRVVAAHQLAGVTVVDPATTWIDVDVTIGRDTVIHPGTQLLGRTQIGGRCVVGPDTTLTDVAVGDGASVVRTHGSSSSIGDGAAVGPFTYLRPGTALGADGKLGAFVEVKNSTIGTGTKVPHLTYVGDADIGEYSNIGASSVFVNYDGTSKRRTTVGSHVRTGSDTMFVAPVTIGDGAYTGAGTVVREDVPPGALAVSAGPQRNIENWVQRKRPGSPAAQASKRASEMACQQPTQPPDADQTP
# Sequence of E3 ubiquitin-protein ligase Mdm2 (Q00987 whole entry): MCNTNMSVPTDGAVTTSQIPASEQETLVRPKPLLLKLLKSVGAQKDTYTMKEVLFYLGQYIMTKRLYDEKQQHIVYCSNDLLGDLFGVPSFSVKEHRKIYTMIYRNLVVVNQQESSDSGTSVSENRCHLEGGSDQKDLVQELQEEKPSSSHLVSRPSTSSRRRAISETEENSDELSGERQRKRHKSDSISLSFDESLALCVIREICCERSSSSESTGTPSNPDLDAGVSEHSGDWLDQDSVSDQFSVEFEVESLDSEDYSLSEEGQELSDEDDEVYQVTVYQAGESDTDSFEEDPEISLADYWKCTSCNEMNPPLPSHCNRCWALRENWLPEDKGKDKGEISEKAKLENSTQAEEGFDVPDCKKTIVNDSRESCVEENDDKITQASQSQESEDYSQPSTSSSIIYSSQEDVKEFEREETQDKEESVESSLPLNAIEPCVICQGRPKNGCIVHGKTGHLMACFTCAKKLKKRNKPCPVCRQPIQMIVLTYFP
structure (smiles),measurement,setting,value
COc1ccc(-c2cc(C(F)(F)F)n3ncc(C(=O)N4CCCCC4c4cccnc4)c3n2)cc1 (stereo unspecified),IC50,[1],> 100 µM (active)
CCCSc1nnc(NC(=O)c2sc3nc(-c4cccs4)ccc3c2N)s1,CC50,[2],46 µM (active)
same,IC50,[3],167 µM (active)
Cc1nc2cc(C(F)(F)F)ccc2n1C1CCN(Cc2nnnn2Cc2ccc3c(c2)OCO3)CC1,EC50,[4],8.54 µM (active)
same,CC50,[5],> 40 µM (active)
same,EC50,[6],8.93 µM (active)
CCc1sc(C(=O)NC2CCN(C)CC2)cc1Br,EC50,[7],< 100 nM (active)
same,EC50,[8],> 60 µM (not active)
same,EC50,[9],26 nM (active)
CN1CCN(c2nc(-c3ccc(Br)cc3)nnc2-c2ccccc2)CC1,EC50,[7],< 100 nM (active)
same,EC50,[8],> 60 µM (inconclusive)
same,EC50,[9],8 nM (active)
COC(=O)C(CC(=O)c1ccc(Br)cc1)n1ccnc1 (stereo unspecified),EC50,[4],15.5 µM (active)
same,EC50,[6],14.4 µM (active)
COc1ccc(/C=C/C(=O)Nc2ccccc2C(=O)O)cc1,IC50,[10],31 µM (active)
same,IC50,[11],> 67.5 µM (inactive)
same,IC50,[12],> 67.5 µM (inactive)
COC(=O)CSC1=C(C#N)C(=O)NC(c2ccccc2)S1 (stereo unspecified),EC50,[13],2.15 µM (active)
same,AC50,[14],7.06 µM (active)
same,IC50,[15],> 66 µM (inactive)
same,IC50,[16],> 66 µM (inactive)
